For 47 compounds, IC50 results are on record in patent US8653087B2, “Pyrido [5, 4-D] pyrimidines as cell proliferation inhibitors” (Boehringer Ingelheim International GmbH, priority 2008, dated 2014).

Molecules are shown by their SMILES. Where only a bound is given, the exact number is not on record here.

As a reminder, the IC50 is the concentration needed to halve the response being measured. A lower IC50 goes with inhibition by little substance.

In this assay the target is B-Raf (V600E)-kinase (Homo sapiens (Human), UniProt P15056, V600E). The assay can be described thus: Kinase test B-RAF (V600E). As to conditions: B-RAF (V600E) kinase test, 250 μM ATP. Format: biochemical. Here is the method: Kinase Test B-RAF (V600E)
Chain of B-Raf (V600E)-kinase (P15056 whole entry V600E): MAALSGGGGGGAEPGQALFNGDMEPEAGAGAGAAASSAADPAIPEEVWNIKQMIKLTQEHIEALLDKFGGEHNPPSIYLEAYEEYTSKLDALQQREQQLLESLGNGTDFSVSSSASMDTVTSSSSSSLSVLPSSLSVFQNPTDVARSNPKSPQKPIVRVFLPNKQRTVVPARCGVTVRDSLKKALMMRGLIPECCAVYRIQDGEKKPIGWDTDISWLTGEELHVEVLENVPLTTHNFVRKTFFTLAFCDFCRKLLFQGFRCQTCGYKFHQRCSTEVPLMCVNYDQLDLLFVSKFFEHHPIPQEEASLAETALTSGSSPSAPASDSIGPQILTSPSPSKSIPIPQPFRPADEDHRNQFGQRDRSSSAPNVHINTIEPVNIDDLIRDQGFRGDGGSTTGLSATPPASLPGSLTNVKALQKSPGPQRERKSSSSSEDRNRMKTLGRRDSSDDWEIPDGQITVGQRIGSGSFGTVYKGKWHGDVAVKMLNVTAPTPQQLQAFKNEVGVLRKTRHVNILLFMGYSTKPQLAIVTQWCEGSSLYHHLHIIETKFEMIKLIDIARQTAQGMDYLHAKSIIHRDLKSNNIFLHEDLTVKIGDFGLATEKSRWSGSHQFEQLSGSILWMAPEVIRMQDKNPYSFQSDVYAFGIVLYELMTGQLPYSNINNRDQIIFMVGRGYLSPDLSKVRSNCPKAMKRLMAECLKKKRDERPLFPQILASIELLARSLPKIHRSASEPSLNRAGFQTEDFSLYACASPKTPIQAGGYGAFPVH
In a dilution series 10 μL of test substance solution are placed in a multiwell plate. The dilution series is selected so that generally a range of concentrations of 2 μM to 0.119 nM or 0.017 nM is covered. If necessary the initial concentration of 2 μM is changed to 50 μM, 10 μM or 0.4 μM or 0.2857 μM and further dilution is carried out accordingly. The final concentration of DMSO is 5%. 10 μL of the B-Raf (V600E)-kinase solution are pipetted in (containing 0.5 ng B-Raf (V600E)-kinase in 20 mM Tris-HCl pH 7.5, 0.1 mM EDTA, 0.1 mM EGTA, 0.286 mM sodium orthovanadate, 10% glycerol, 1 mg/mL bovine serum albumin, 1 mM dithiothreitol) and the mixture is incubated for 24 h at RT under with shaking. The kinase reaction is started by the addition of 20 μL ATP solution [final concentration: 250 μM ATP, 30 mM Tris-HCl pH 7.5, 0.02% Brij, 0.2 mM sodium orthovanadate, 10 mM magnesium acetate, 0.1 mM EGTA, phosphatase cocktail (Sigma, # P2850, dilution recommended by the manufacturer), 0.1 mM EGTA] and 10 μL MEK1 solution [containing 50 ng biotinylated MEK1 (prepared from purified MEK1 according to standard procedure, e.g. with EZ-Link Sulpho-NHS-LC-Biotin reagent, Pierce, #21335) and carried out for 60 min at RT with constant shaking. The reaction is stopped by the addition of 12 μL of a 100 mM EDTA solution and incubation is continued for a further 5 min. 55 μL of the reaction solution are transferred into a streptavidin-coated plate (e.g. Streptawell HighBond, Roche, #11989685001) and shaken gently for 1 h at RT, in order to bind biotinylated MEK1 to the plate. After elimination of the liquid the plate is washed five times with 200 μL of 1×PBS and 100 μL solution of primary antibody plus europium-labelled secondary antibody [Anti Phospho-MEK (Ser217/221), Cell Signaling, #9121 and Eu-N1 labeled goat-anti-rabbit antibody, Perkin Elmer, # AD0105], the primary antibody is diluted 1:2000 and the secondary antibody is diluted to 0.4-0.5 μg/mL in Delfia Assay Buffer (Perkin Elmer, #1244-111). After 1 h shaking at RT the solution is poured away and washed five times with 200 μL Delfia Wash Buffer (Perkin Elmer, #4010-0010/#1244-114). After the addition of 200 μL Enhancement Solution (Perkin Elmer, #4001-0010/#1244-105) the mixture is shaken for 10 min at RT and then measured in a Wallac Victor using the program “Delfia Time Resolved Fluorescence (Europium)”. IC50 values are obtained from these dosage-activity curves using a software program (GraphPadPrizm).
Turning to `COc1ccc(NC(=O)c2ccc(C)c(Nc3ncnc4c(N)nc(N5CCN(C)CC5)nc34)c2)cc1C(F)(F)F` [I-1], it took 26 nM to reach half-maximal inhibition (IC50). In other words, the double-digit nanomolar range. The compound `Cc1ccc(C(=O)Nc2cc(Br)cc(C(F)(F)F)c2)cc1Nc1ncnc2c(N)nc(N3CCN(C)CC3)nc12` [I-2] returned an IC50 of 9 nM. In turn, `Cc1ccc(C(=O)Nc2ccc(C(F)(F)F)cc2)cc1Nc1ncnc2c(N)nc(N3CCCN(C)CC3)nc12` [I-3] displayed an IC50 of 9 nM. In turn, `Cc1ccc(C(=O)Nc2ccc(C(F)(F)F)cc2)cc1Nc1ncnc2c(N)nc(N3CCNCC3)nc12` [I-4] displayed an IC50 of 7 nM.

`Cc1ccc(C(=O)Nc2ccc(C(F)(F)F)cc2)cc1Nc1ncnc2c(N)nc(N3CCN(C)CC3)nc12` [I-5] registered an IC50 of 5 nM. The IC50 values of the last two compounds are within 1.5-fold of each other. As to `Cc1ccc(C(=O)Nc2ccc(C(F)(F)F)cc2)cc1Nc1ncnc2c(N)nc(NCCN(C)C)nc12` [I-6], 68 nM corresponded to half-maximal inhibition (IC50). To `Cc1ccc(C(=O)Nc2ccc(C(F)(F)F)cc2)cc1Nc1ncnc2c(N)nc(N3CCN(C4CCN(C)CC4)CC3)nc12` [I-7] belongs 3 nM; to `Cc1ccc(C(=O)Nc2ccc(C(F)(F)F)cc2)cc1Nc1ncnc2c(N)nc(N3CCN(CC4CCN(C)CC4)CC3)nc12` [I-8], 2 nM; to `Cc1ccc(C(=O)Nc2cc(C(C)(C)C)on2)cc1Nc1ncnc2c(N)nc(N3CCN(C)CC3)nc12` [I-9], 3 nM. Regarding `Cc1ccc(C(=O)Nc2cc(C(C)(C)C)on2)cc1Nc1ncnc2c(N)nc(N3CCN(C4CCN(C)CC4)CC3)nc12` [I-10], the midpoint of inhibition, the IC50, lay at 1 nM. This IC50 lies about 3-fold lower than the previous one. To `Cc1ccc(C(=O)Nc2cc(C(C)(C)C)on2)cc1Nc1ncnc2c(N)nc(N3CCCN(C)CC3)nc12` [I-11] belongs 1 nM; to `Cc1ccc(C(=O)Nc2cc(C(C)(C)C)n[nH]2)cc1Nc1ncnc2c(N)nc(N3CCN(C4CCN(C)CC4)CC3)nc12` [I-12], 2 nM. To `Cc1ccc(C(=O)Nc2cc(C(C)(C)C)n[nH]2)cc1Nc1ncnc2c(N)nc(N3CCN(CC4CCN(C)CC4)CC3)nc12` [I-13] belongs 4 nM. To `Cc1ccc(C(=O)Nc2cc(C(C)(C)C)n[nH]2)cc1Nc1ncnc2c(N)nc(N3CCCN(C)CC3)nc12` [I-14] belongs 3 nM. The compound `COc1ccc(NC(=O)c2ccc(C)c(Nc3ncnc4c(N)nc(N5CCN(C6CCN(C)CC6)CC5)nc34)c2)cc1C(F)(F)F` [I-15] registered a 50% inhibitory concentration (IC50) of 1 nM. The figure for `COc1ccc(NC(=O)c2ccc(C)c(Nc3ncnc4c(N)nc(N5CCN(CC6CCN(C)CC6)CC5)nc34)c2)cc1C(F)(F)F` [I-16] is 1 nM; for `COc1ccc(NC(=O)c2ccc(C)c(Nc3ncnc4c(N)nc(N5CCCN(C)CC5)nc34)c2)cc1C(F)(F)F` [I-17] it is 1 nM; for `Cc1ccc(C(=O)Nc2cc(C(C)(C)C)n[nH]2)cc1Nc1ncnc2c(N)nc(N3CCN(C)CC3)nc12` [I-18] it is 3 nM. Compound `CN1CCN(c2nc(N)c3ncnc(Nc4cccc(C(=O)Nc5cccc(C(F)(F)F)c5)c4)c3n2)CC1` [I-19] gave an IC50 of 57 nM. For the compound `CN1CCCN(c2nc(N)c3ncnc(Nc4cccc(C(=O)Nc5cccc(C(F)(F)F)c5)c4)c3n2)CC1` [I-20], the IC50 came out at 50 nM. Compound `CN1CCC(N2CCN(c3nc(N)c4ncnc(Nc5cccc(C(=O)Nc6cccc(C(F)(F)F)c6)c5)c4n3)CC2)CC1` [I-21] gave an IC50 of 22 nM. To `CN1CCC(CN2CCN(c3nc(N)c4ncnc(Nc5cccc(C(=O)Nc6cccc(C(F)(F)F)c6)c5)c4n3)CC2)CC1` [I-22] belongs 13 nM; to `CN1CCN(c2nc(N)c3ncnc(Nc4cc(C(=O)Nc5cccc(C(F)(F)F)c5)ccc4Cl)c3n2)CC1` [I-23], 14 nM; to `CN1CCCN(c2nc(N)c3ncnc(Nc4cc(C(=O)Nc5cccc(C(F)(F)F)c5)ccc4Cl)c3n2)CC1` [I-24], 9 nM. For `CN1CCC(N2CCN(c3nc(N)c4ncnc(Nc5cc(C(=O)Nc6cccc(C(F)(F)F)c6)ccc5Cl)c4n3)CC2)CC1` [I-25], half-maximal inhibition (IC50) was put at 3 nM. This IC50 lies about 3-fold lower than the previous one. Compound `CN1CCN(c2nc(N)c3ncnc(Nc4cc(C(=O)Nc5cccc(C(F)(F)F)c5)ccc4Br)c3n2)CC1` [I-26] gave an IC50 of 70 nM.

The compound `CN1CCCN(c2nc(N)c3ncnc(Nc4cc(C(=O)Nc5cccc(C(F)(F)F)c5)ccc4Br)c3n2)CC1` [I-27] returned an IC50 of 83 nM. `CN1CCC(N2CCN(c3nc(N)c4ncnc(Nc5cc(C(=O)Nc6cccc(C(F)(F)F)c6)ccc5Br)c4n3)CC2)CC1` [I-28] registered an IC50 of 13 nM.

In turn, `CN1CCC(CN2CCN(c3nc(N)c4ncnc(Nc5cc(C(=O)Nc6cccc(C(F)(F)F)c6)ccc5Br)c4n3)CC2)CC1` [I-29] displayed an IC50 of 15 nM. Compound `COc1ccc(C(=O)Nc2cccc(C(F)(F)F)c2)cc1Nc1ncnc2c(N)nc(N3CCN(C)CC3)nc12` [I-30] registered a half-maximal inhibitory concentration (IC50) of 35 nM. This IC50 is about 2.3-fold higher than that of the compound before.

Turning to `COc1ccc(C(=O)Nc2cccc(C(F)(F)F)c2)cc1Nc1ncnc2c(N)nc(N3CCCN(C)CC3)nc12` [I-31], it took 58 nM to reach half-maximal inhibition (IC50).

Regarding `COc1ccc(C(=O)Nc2cccc(C(F)(F)F)c2)cc1Nc1ncnc2c(N)nc(N3CCN(C4CCN(C)CC4)CC3)nc12` [I-32], the IC50 is 14 nM. This IC50 is about 4.1-fold lower than that of the compound before. Consider `COc1ccc(C(=O)Nc2cccc(C(F)(F)F)c2)cc1Nc1ncnc2c(N)nc(N3CCN(CC4CCN(C)CC4)CC3)nc12` [I-33], for which inhibition was half-maximal at 12 nM (IC50). Compound `Cc1ccc(C(=O)Nc2cc(C(C)(C)C)n[nH]2)cc1Nc1ncnc2c(N)nc(N3CCN4CCCC4C3)nc12` (centres unmarked) [I-34] showed an IC50 of 2 nM.

In the case of `Cc1ccc(C(=O)Nc2cc(C(C)(C)C)n[nH]2)cc1Nc1ncnc2c(N)nc(N3C[C@@H](C)N[C@@H](C)C3)nc12` [I-35], the IC50 was found to be 2 nM. The figure for `Cc1ccc(C(=O)Nc2cc(C(C)(C)C)n[nH]2)cc1Nc1ncnc2c(N)nc(N3C[C@H]4C[C@@H]3CN4C)nc12` [I-36] is 4 nM; for `Cc1ccc(C(=O)Nc2cc(C(C)(C)C)n[nH]2)cc1Nc1ncnc2c(N)nc(N3CCN(CC(C)C)CC3)nc12` [I-37] it is 4 nM; for `Cc1ccc(C(=O)Nc2cc(C(C)(C)C)n[nH]2)cc1Nc1ncnc2c(N)nc(N3CCN(CC4CCCO4)CC3)nc12` (centres unmarked) [I-38] it is 6 nM. For `Cc1ccc(C(=O)Nc2cc(C(C)(C)C)n[nH]2)cc1Nc1ncnc2c(N)nc(N3CCN(C4CCCC4)CC3)nc12` [I-39], the IC50 came to 5 nM. Take `Cc1ccc(C(=O)Nc2cc(C(C)(C)C)n[nH]2)cc1Nc1ncnc2c(N)nc(N3CCN(CC4CCCN(C)C4)CC3)nc12` (centres unmarked) [I-40]: the IC50 was found to be 3 nM. To `COCCN1CCN(c2nc(N)c3ncnc(Nc4cc(C(=O)Nc5cc(C(C)(C)C)n[nH]5)ccc4C)c3n2)CC1` [I-41] belongs 5 nM; to `Cc1ccc(C(=O)Nc2cc(C(C)(C)C)n[nH]2)cc1Nc1ncnc2c(N)nc(N3CCN(C4CC4)CC3)nc12` [I-42], 9 nM.

With `Cc1ccc(C(=O)Nc2cc(C(C)(C)C)n[nH]2)cc1Nc1ncnc2c(N)nc(N3CCN4CCCCC4C3)nc12` (centres unmarked) [I-43], half-maximal inhibition (IC50) required 4 nM. To `Cc1ccc(C(=O)Nc2cc(C(C)(C)C)n[nH]2)cc1Nc1ncnc2c(N)nc(N3CCC(N4CCN(C)CC4)CC3)nc12` [I-52] belongs 55 nM; to `COc1ccc(C(C)(C)C)cc1NC(=O)c1ccc(C)c(Nc2ncnc3c(N)nc(N4CCN(C)CC4)nc23)c1` [I-53], 21 nM; to `COc1cc(NC(=O)c2ccc(C)c(Nc3ncnc4c(N)nc(N5CCN(C)CC5)nc34)c2)cc(C(F)(F)F)c1` [I-54], 5 nM. To `Cc1ccc(C(=O)Nc2cccc(C(F)(F)F)c2)cc1Nc1ncnc2c(N)nc(N3CCN(C)CC3)nc12` [I-55] belongs under 1 nM.
